Experiments:
[1] = tested on: JNK1/2; assay: Phospho-JNK1/2 in SU-DHL-1 cells (Luminex multiplex); assay type: cell-based, human; conditions: 24 hours, dose-dependent
Procedure: FIGS. 8A-8F. Effect of EP009 on ALCL cells is mediated through selective activation of ERK1/2 and JNK1/2 stress signaling pathways, and inhibition of p70 S6 kinase growth signaling pathways. SU-DHL-1 cells were treated with vehicle (PBS) or increasing amounts of EP009 (0-50 μM) for 24 hours. Cells were then lysed, clarified, and subjected to Luminex multiplex analysis to detect phosphorylated (A) ERK1/2, (B) JNK1/2, (C) p70 S6 kinase, (D) IκBα, (E) CREB, and (F) p38. Values represent mean fluorescence intensity (MFI) normalized to corresponding GAPDH MFI, while error bars represent the standard deviation (n=2). Representative data from two independent experiments are shown. Statistical significance was determined using Student's t-test. (*, p<0.05).
The MILLIPLEX MAP 8-plex Multi-Pathway Signaling Phosphoprotein kit (Millipore) was used to detect phosphorylated ERK1/2 (Thr185/Tyr187), STAT3 (Ser727), JNK1/2 (Thr183/Tyr185), p70 S6 kinase (Thr412), IκBα (Ser32), STAT5A/B (Tyr694/699), CREB (Ser133), and p38 (Thr180/Tyr182). The MILLIPLEX MAP 5-plex STAT Phosphoprotein kit (Millipore) was used to detect phosphorylated STAT1 (Tyr701), STAT2 (Tyr690), STAT3 (Tyr705), STAT5A/B (Tyr694/699), and STAT6 (Tyr641). The MILLIPLEX MAP Human Apoptosis 3-plex kit (Millipore) was used to detect cleaved PARP, cleaved Caspase 3, and total GAPDH for protein normalization.

[2] = tested on: SU-DHL-1 tumors; assay: SU-DHL-1 xenograft human lymphoma model; assay type: in vivo, SCID/NOD mice
Procedure: FIGS. 9A-9B Pharmacokinetics and efficacy of EP009 in vivo. (A) Sprague Dawley rats were administered EP009 by oral gavage (200 mg/kg) and pharmacokinetics measured by analysis of plasma concentrations at indicated time points. Values represent mean concentrations, while error bars represent the standard deviation (n=5). (B) Therapeutic study of EP009 in SU-DHL-1 model in SCID/NOD mice.
Severe combined immunodeficient/nonobese diabetic (SCID/NOD) mice were purchased from Charles River (Milan, Italy). The SU-DHL-1 model, 28 which was established by subcutaneous injection of 1×10^7 SU-DHL-1 cells in the left flank of SCID/NOD mice, served as the xenograft human lymphoma model. Tumor masses were measured with caliper in two perpendicular diameters in a blind fashion to determine the longest diameter. Progressively growing masses >1 mm in diameter were regarded as tumors. Mice were divided into three groups (n=8/group) and treatments initiated when tumors were established and measurable (day 16 after tumor challenge). Control mice received oral gavage of saline (placebo), while treated mice received EP009 orally (100 or 200 mg/kg) three times per week for six weeks. The study was terminated when tumors began to show signs of ulcerations and measurements became inaccurate (day 58). All animal were maintained in the animal facility of the Molecular Biotechnology Center, University of Turin and treated in accordance with the European guidelines.

[3] = biological target: ADCK3 (Homo sapiens, UniProt Q8NI60); assay: Kinase panel: ADCK3; assay type: biochemical; conditions: 10 μM EP009
Chain of ADCK3 (Q8NI60 163-647): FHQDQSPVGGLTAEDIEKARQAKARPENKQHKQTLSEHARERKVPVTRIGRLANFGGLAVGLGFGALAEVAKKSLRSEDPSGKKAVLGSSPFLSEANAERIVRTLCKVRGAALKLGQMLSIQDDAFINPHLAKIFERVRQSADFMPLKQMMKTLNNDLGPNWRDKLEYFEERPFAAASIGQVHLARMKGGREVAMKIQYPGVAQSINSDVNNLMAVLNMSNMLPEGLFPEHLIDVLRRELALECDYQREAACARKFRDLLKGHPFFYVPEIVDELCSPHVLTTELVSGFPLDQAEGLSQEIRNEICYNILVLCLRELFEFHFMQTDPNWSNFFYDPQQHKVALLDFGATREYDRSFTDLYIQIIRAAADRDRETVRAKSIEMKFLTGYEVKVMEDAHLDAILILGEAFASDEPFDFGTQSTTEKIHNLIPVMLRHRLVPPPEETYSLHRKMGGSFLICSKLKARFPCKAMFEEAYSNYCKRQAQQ
Procedure: (§1) Achieving JAK3 selectivity remains a significant challenge in the development of new small molecules for the treatment of cancer and immune-derived diseases. As such, the inventors employed cell-based screening assays of small-molecule libraries based upon the chemical scaffold of the established JAK3 inhibitor NC1153 (Stepkowski et al., J Immunol. (2005), 175(7):4236-4246) EP009 (FIG. 2A) was selected as a lead compound due to improved intrinsic stability (>95% purity in various solvents at 37° C. for 24 hours; FIG. 3) and high-degree of JAK3 selectivity. To test JAK3 versus JAK2 specificity of EP009, the IL-2/JAK3-dependent Kit225, and IL-3/JAK2-dependent BaF/3 cell lines were used. Kit225 and BaF/3 cells growing in the presence of IL-2 or IL-3, respectively, were treated with ascending concentrations of EP009 for 12 hours and cellular JAK3 and JAK2 tyrosine phosphorylation levels detected by Western blot analysis (FIGS. 2B and 2C). Following densitometric analysis, EP009 was determined to dose-dependently reduce IL-2-mediated JAK3 tyrosine phosphorylation with a cellular 50% inhibitory concentration (IC50) between 10 and 20 μM (FIG. 2B). […] To globally evaluate specificity, the inhibitory activity of EP009 was measured against a panel of protein kinases distributed throughout the kinome using the scanEDGE profiling service (KINOMEscan). […]

[4] = biological target: EPHA2 (Homo sapiens, UniProt P29317); assay: Kinase panel: EPHA2; assay type: biochemical; conditions: 10 μM EP009
Chain of EPHA2 (P29317 24-976): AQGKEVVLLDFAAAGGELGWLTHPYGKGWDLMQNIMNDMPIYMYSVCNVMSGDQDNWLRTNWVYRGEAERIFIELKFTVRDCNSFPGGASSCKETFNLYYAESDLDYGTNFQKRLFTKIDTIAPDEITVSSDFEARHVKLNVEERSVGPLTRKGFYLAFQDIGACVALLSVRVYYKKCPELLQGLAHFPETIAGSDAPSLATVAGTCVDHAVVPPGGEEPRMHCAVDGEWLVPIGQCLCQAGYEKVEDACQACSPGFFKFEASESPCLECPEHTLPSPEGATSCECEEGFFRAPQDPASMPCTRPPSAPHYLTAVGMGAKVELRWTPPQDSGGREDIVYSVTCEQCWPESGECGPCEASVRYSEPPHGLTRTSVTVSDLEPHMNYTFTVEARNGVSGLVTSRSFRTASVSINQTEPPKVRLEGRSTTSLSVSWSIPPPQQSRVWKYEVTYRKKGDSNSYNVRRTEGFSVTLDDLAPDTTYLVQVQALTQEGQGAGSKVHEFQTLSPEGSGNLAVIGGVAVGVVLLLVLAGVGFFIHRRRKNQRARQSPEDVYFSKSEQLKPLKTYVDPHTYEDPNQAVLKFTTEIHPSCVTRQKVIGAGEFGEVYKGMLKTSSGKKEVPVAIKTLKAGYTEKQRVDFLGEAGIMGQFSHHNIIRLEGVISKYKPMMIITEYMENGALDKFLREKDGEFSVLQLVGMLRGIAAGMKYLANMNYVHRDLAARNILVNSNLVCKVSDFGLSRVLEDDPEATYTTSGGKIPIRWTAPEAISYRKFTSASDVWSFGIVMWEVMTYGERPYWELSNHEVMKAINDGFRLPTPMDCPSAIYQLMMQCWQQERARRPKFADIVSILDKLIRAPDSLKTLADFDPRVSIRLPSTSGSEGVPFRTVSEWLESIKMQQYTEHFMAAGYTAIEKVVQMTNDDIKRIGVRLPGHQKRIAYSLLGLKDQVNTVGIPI
Procedure: as §1

[5] = biological target: INSR (Homo sapiens, UniProt P06213); assay: Kinase panel: INSR; assay type: biochemical; conditions: 10 μM EP009
Chain of INSR (P06213 28-1382): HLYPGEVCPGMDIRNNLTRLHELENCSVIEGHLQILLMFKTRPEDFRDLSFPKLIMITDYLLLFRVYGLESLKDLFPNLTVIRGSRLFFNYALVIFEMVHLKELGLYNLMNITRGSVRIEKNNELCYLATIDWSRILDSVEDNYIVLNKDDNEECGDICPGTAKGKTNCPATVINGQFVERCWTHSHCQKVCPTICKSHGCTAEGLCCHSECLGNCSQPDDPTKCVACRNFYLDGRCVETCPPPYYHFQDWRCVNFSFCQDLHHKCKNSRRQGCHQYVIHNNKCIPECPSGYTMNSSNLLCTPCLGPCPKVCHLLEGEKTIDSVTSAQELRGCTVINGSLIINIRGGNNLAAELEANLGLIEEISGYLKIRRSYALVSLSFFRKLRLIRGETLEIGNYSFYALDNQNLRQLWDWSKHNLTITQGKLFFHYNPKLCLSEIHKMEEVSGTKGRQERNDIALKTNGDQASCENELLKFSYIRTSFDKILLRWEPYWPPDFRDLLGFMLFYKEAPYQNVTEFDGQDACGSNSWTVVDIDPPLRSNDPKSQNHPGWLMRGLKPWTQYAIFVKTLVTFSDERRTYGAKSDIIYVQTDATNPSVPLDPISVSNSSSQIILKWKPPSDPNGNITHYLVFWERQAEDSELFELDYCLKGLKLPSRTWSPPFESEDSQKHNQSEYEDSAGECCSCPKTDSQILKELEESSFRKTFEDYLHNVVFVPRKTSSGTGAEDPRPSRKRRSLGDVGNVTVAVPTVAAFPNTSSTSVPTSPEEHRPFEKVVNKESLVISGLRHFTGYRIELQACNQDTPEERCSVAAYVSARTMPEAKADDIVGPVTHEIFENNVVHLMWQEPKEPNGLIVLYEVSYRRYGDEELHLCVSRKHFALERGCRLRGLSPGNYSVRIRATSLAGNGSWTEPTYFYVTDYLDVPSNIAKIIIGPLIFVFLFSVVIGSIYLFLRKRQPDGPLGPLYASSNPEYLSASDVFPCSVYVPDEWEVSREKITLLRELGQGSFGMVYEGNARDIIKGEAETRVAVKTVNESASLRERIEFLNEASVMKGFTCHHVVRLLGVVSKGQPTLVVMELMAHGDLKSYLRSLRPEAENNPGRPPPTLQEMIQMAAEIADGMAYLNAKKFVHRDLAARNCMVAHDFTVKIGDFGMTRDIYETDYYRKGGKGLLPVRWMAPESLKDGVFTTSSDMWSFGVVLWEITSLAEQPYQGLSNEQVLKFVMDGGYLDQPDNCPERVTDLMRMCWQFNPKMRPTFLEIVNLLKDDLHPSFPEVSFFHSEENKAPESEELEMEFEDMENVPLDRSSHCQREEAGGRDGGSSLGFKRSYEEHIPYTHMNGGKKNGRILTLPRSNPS
Procedure: as §1

[6] = biological target: JNK1 (Homo sapiens, UniProt P45983); assay: Kinase panel: JNK1; assay type: biochemical; conditions: 10 μM EP009
Chain of JNK1 (P45983 whole entry): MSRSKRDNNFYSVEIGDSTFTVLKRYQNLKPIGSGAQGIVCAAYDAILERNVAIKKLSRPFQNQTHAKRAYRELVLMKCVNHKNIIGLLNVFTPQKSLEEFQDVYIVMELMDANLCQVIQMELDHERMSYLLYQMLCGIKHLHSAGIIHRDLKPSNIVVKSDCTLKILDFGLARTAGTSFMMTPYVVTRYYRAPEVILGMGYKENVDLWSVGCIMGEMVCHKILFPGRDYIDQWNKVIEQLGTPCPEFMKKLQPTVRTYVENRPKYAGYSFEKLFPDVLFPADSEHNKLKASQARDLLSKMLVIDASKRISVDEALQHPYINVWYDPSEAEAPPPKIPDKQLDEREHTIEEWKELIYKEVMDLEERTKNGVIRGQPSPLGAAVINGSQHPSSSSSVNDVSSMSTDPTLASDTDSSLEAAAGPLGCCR
Procedure: as §1

[7] = biological target: PAK4 (Homo sapiens, UniProt O96013); assay: Kinase panel: PAK4; assay type: biochemical; conditions: 10 μM EP009
Procedure: as §1

[8] = biological target: SNARK (Homo sapiens, UniProt Q9H093); assay: Kinase panel: SNARK; assay type: biochemical; conditions: 10 μM EP009
Chain of SNARK (Q9H093 whole entry): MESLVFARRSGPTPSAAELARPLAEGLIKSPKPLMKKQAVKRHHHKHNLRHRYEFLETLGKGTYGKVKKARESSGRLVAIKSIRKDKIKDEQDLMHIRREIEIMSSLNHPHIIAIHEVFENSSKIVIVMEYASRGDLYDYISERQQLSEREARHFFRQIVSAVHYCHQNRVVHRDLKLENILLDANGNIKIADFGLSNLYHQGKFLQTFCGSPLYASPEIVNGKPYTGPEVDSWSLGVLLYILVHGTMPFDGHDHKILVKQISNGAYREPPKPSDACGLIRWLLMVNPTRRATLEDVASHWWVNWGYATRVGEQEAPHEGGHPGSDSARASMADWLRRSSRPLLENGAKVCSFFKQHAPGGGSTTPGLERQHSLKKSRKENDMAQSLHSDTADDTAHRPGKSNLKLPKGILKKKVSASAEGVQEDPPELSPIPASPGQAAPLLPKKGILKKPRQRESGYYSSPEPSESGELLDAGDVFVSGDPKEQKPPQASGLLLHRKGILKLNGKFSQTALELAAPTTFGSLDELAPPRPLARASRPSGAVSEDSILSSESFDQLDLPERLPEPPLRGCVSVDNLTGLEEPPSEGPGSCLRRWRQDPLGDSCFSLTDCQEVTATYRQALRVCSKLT
Procedure: as §1

[9] = biological target: SRC (Homo sapiens, UniProt P12931); assay: Kinase panel: SRC; assay type: biochemical; conditions: 10 μM EP009
Chain of SRC (P12931 whole entry): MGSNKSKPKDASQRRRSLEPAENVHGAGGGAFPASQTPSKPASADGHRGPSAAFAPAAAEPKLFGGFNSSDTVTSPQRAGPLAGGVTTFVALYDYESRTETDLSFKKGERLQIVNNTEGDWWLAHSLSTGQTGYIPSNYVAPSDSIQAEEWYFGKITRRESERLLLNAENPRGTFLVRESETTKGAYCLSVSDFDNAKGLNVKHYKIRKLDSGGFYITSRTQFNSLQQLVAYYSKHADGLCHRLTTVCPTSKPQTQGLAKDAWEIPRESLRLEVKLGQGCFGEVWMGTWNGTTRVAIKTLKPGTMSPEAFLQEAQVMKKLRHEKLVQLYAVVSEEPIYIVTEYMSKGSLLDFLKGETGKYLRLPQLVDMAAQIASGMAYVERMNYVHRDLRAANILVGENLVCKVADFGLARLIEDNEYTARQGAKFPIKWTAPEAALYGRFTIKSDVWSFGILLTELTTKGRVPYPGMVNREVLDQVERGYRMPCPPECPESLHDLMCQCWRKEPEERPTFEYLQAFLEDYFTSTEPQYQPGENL
Procedure: as §1

[10] = biological target: SRPK3 (Homo sapiens, UniProt Q9UPE1); assay: Kinase panel: SRPK3; assay type: biochemical; conditions: 10 μM EP009
Chain of SRPK3 (Q9UPE1 whole entry): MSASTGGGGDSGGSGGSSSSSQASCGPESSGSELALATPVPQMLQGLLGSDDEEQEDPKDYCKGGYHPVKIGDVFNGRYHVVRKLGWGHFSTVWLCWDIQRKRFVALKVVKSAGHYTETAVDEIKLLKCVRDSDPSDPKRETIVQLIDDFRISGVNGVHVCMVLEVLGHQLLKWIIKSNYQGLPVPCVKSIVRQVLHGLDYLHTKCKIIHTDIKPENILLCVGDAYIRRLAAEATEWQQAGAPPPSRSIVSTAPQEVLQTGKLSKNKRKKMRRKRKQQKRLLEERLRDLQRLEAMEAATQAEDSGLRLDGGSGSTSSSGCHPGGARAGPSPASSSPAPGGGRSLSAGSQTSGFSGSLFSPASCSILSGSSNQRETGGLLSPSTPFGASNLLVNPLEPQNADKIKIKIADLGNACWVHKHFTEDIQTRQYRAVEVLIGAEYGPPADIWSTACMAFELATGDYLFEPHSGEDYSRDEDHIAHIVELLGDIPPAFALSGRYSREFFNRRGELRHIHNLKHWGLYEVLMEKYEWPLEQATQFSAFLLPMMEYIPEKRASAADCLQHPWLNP
Procedure: as §1

In the case of C=C1CCCCCCCCCC(CO)C1=O (stereo not drawn) [EP009, 2-(Hydroxymethyl)-12-methylenecyclododecanone], the JNK1/2 phosphorylation [1] is reported as “induced phosphorylation and activation”, the tumor growth inhibition ([2]; oral 100 mg/kg three times per week, p<0.05) is reported as 37.5% and the tumor growth inhibition ([2]; oral 200 mg/kg three times per week, p<0.01) is reported as 51%. For the same compound, the body weight changes ([2]; oral 100 and 200 mg/kg) was “No significant body weight changes”, the “Kinase Activity (% of Control)” value [3] was 98 % of Control and the “Kinase Activity (% of Control)” value [4] was 100 % of Control. For the same compound, the “Kinase Activity (% of Control)” value [5] was 100 % of Control, the “Kinase Activity (% of Control)” value [6] was 99 % of Control and the “Kinase Activity (% of Control)” value [7] was 100 % of Control. For the same compound, the “Kinase Activity (% of Control)” value [8] was 82 % of Control, the “Kinase Activity (% of Control)” value [9] was 100 % of Control and the “Kinase Activity (% of Control)” value [10] was 100 % of Control.

Reference: patent US9371265B2, “Compositions and methods related to inhibitors of JAK kinase” (EP PHARMA, INC., priority 2012, dated 2016)
